In this test the test system is bovine embryos. Kind of test: Example 9: L-NAME (1 or 1000 nM) added to mBECM containing serum and Hb, pre-hatching development. It is filed as cell-based. Details: key to Least square mean of embryos developed to 16-cell / Least square mean of embryos developed to Blastocyst / Least square mean of embryos developed to 2-cell / Least square mean of embryos developed to 8-cell / Least square mean of embryos developed to Morula: fraction developed; each embryo scored 1 = developed, 0 = not developed. The conditions noted are these: for Number of embryos developed to 2-cell / Number of embryos developed to 8-cell / Number of embryos developed to 16-cell / Number of embryos developed to Morula / Number of embryos developed to Blastocyst: 96 embryos; for Number of embryos developed to 2-cell / Least square mean of embryos developed to 2-cell: 48 h; for Number of embryos developed to 8-cell / Least square mean of embryos developed to 8-cell: 60 h; for Number of embryos developed to 16-cell / Least square mean of embryos developed to 16-cell: 120 h; for Number of embryos developed to Morula / Least square mean of embryos developed to Morula: 144 h; for Number of embryos developed to Blastocyst / Least square mean of embryos developed to Blastocyst: 192 h. As for the experimental part:
The basic medium used for maturation of oocytes was tissue culture medium (TCM)-199 with Earle's salts, buffered with 25 mM HEPES (Gibco BRL, Grand Island, N.Y.) and supplemented with 10% (v/v) heat-inactivated fetal bovine serum (FBS; Hyclone Laboratories, Logan, Utah), 1 μg/ml estradiol-17β (NOBL Laboratories, Sioux Center, Iowa), 3 μg/ml bovine FSH (NOBL Laboratories), 6 μg/ml bovine LH (NOBL Laboratories), and 25 μg/ml gentamycin (Sigma Chemical Co., St. Louis, Mo.). The basic medium used for treatment of spermatozoa and fertilization of oocytes was a modified Tyrode's medium (J. Parrish et al., Capacitation of bovine sperm by heparin. Biol. Reprod. 38:1171-1180 (1988)), supplemented with 0.25 mM sodium pyruvate (Gibco BRL), 6 mg/ml fatty acid (FA)-free BSA (No. A-6003, Sigma), 15 μg/ml calcium heparin from porcine intestinal mucosa (183 USP/mg; H-8398, Sigma), and 25 μg/ml gentamycin. Modified bovine embryo culture medium (mBECM) containing 10 μM β-mercaptoethanol was used for culture of embryos, as described in J. Lim et al., “Roles of growth factors in the development of bovine embryos fertilized in vitro and cultured singly in a defined medium,” Reprod. Fertil. Dev., 8:1199-1205 (1996). mBECM supplemented with 10% (v/v) FBS was used for co-culturing inseminated oocytes with CGC. Osmolarity of the medium was maintained within the range of 265-290 mOsm.
All cumulus-oocyte complexes (COC) were collected in Madison, Wis. (BOMED, Inc.) and were shipped in 2 ml of maturation medium in a battery powered incubator via overnight express mail service. Oocytes matured during transit and arrived within 24 h after exposure to maturation medium, pre-equilibrated at 39° C. in 5% CO2 in air. At 22 to 24 h after exposure to the medium, the COCs were inseminated in vitro as described in J. Lim et al., “Intracytoplasmic glutathione concentration and the role of β-mercaptoethanol in preimplantation development of bovine embryos,” Theriogenology, 46:429-439 (1996). At 18 h post-insemination, COCs were cultured in groups (28-40 embryos) in a 4-well multidish (Nunc, Roskilde, Denmark) containing 0.8-ml of mBECM. Embryos were dislodged from CGC at 36 to 48 h post-insemination.
In Example 9, IVF embryos were cultured in MBECM supplemented as follows: 1) no addition (control), 2) Hb (1 μg/ml), 3) Hb plus L-NAME (1 nM), and 4) Hb plus L-NAME (1000 nM). Embryonic development was evaluated up to 192 h post-insemination. A total of 384 oocytes were inseminated, and were randomly and equally allotted to 4 replicates.
Embryos developed to the 2-cell, 8-cell, 16-cell, morula, and blastocyst stages at the pertinent observation times were individually scored ‘1’ (developed). Embryos that had not developed to these stages at the same times were scored ‘0’ (non-developed). Sums of the scores at each stage of development were evaluated by analysis of variance using a general linear model (PROC-GLM) in the SAS statistical programming package (1991). In Example 8, the combined effects of Hb addition and month of oocyte collection were first examined in a 2×7 factorial arrangement. Overall differences in embryonic development in Hb-free and Hb-containing culture systems were further evaluated. […] Differences were regarded as statistically significant where P values were less than 0.05.

As to `COC(=O)[C@@H](N)CCCN=C(N)N[N+](=O)[O-].Cl` [L-NAME, N^G-Lω-nitro-L-arginine methyl ester hydrochloride], where the note is “L-NAME 1 nM with Hb 1 μg/ml”, the “Number of embryos developed to 2-cell” value was 78, the “Number of embryos developed to 8-cell” value is listed as 60, the “Number of embryos developed to 16-cell” value is on record as 46 and the “Number of embryos developed to Morula” value is 38. For the same molecule, under “L-NAME 1 nM with Hb 1 μg/ml”, the “Number of embryos developed to Blastocyst” value is recorded as 26, the “Least square mean of embryos developed to 2-cell” value turned out to be 0.813, the “Least square mean of embryos developed to 8-cell” value was 0.625 and the “Least square mean of embryos developed to 16-cell” value came out at 0.479. Also, where the note is “L-NAME 1 nM with Hb 1 μg/ml”, the “Least square mean of embryos developed to Morula” value worked out at 0.396 and the “Least square mean of embryos developed to Blastocyst” value was 0.271. Moreover, for the setting “L-NAME 1000 nM with Hb 1 μg/ml”, the “Number of embryos developed to 2-cell” value is reported as 70, the “Number of embryos developed to 8-cell” value was found to be 50, the “Number of embryos developed to 16-cell” value came to 40 and the “Number of embryos developed to Morula” value was found to be 28. Further, where the note is “L-NAME 1000 nM with Hb 1 μg/ml”, the “Number of embryos developed to Blastocyst” value came to 19, the “Least square mean of embryos developed to 2-cell” value is recorded as 0.729, the “Least square mean of embryos developed to 8-cell” value is 0.521 and the “Least square mean of embryos developed to 16-cell” value is 0.416. Moreover, where the note is “L-NAME 1000 nM with Hb 1 μg/ml”, the “Least square mean of embryos developed to Morula” value was found to be 0.292 and the “Least square mean of embryos developed to Blastocyst” value was found to be 0.198. Also, where the note is “L-NAME added to culture medium containing Hb, P>0.07”, the “further stimulation of embryonic development to the blastocyst stage” value is “did not further stimulate”.

Source of the values: patent US6864086B2, “Nitric oxide-scavenging system for culturing oocytes, embryos, or other cells” (Board of Supervisors of Louisiana State University and …, priority 1998, dated 2005).
